# Test results reported in patent publication US11273217B2, “Cancer treatment composition combining anti-CD26 antibody and other anticancer agent” (Y's AC Co., Ltd., priority 2015, dated 2022).
# Assays:
# MESO1 cells = experiment: In vivo MESO1 cell growth in SCID mice (tumor weight); conditions: YS110 10 mg/kg, cisplatin 0.5 mg/kg, pemetrexed 50 mg/kg, intraperitoneal, days 1 and 4; tumor weight day 7
# Description: MESO1 cells (3×10^5 cells/animal) were subcutaneously transplanted to the backs of female SCID mice. The day of transplantation was defined as day 0. YS110 (10 mg/kg) alone, cisplatin (0.5 mg/kg)-pemetrexed (50 mg/kg) used concomitantly, or YS110 (10 mg/kg) concomitantly used with the cisplatin-pemetrexed concomitant use was intraperitoneally administered to the mice twice (days 1 and 4). At day 7, their tumors were excised, and the tumor weights were measured. Significant difference was tested by two-tailed t-test (vs Cont).
# HCC827 cells = experiment: In vivo growth of CD26-positive lung cancer cell line HCC827 in SCID mice (tumor weight); conditions: days 1 and 4, day 7
# Description: HCC827 cells (1.8×10^5 cells/animal) were subcutaneously transplanted to the backs of female SCID mice. The day of transplantation was defined as day 0. At day 1, YS110 (10 mg/kg) alone, cisplatin (0.5 mg/kg)+pemetrexed (50 mg/kg), or YS110 (10 mg/kg)+cisplatin (0.5 mg/kg)+pemetrexed (50 mg/kg) was intraperitoneally administered to the mice. At day 4, the same amount of the same drug was administered by the same method as in day 1 (n=6). At day 7, their tumors were excised, and the tumor weights were measured. Significant difference was tested by two-tailed t-test (vs Cont).
# HCC827 cells (0.9×10^5 cells/animal) were subcutaneously transplanted to the backs of female SCID mice. The day of transplantation was defined as day 0. YS110 (10 mg/kg, intraperitoneal administration), gefitinib (100 mg/kg, oral administration), or YS110 (10 mg/kg, intraperitoneal administration)+gefitinib (100 mg/kg, oral administration) was administered to the mice twice (days 1 and 4). At day 7, their tumors were excised, and the tumor weights were measured. Significant difference was tested by two-tailed t-test (vs Cont).
# H226 cells = experiment: MTT cell growth assay, H226; assay type: cell-based; conditions: gemcitabine 10^−8, 3×10^−8, or 10^−7 M and YS110 1, 3, or 10 μg/ml; day 2
# Description: Gemcitabine was studied for its effect on the growth of a mesothelioma cell line. A mesothelioma cell line MESO1, JMN, H2452, or H226 (2×10^3 cells/well) was inoculated to a 96-well plate. One hour later, gemcitabine (10^−9, 10^−8, 10^−7, 10^−6, 10^−5, or 10^−4 M) was added thereto (N=6). 2 days later, MTT assay was conducted. Significant difference was tested by two-tailed t-test (vs Cont).
# H226 cells (2×10^3 cells/well) were inoculated to a 96-well plate. One hour later, gemcitabine (0, 10^−8, 3×10^−8, or 10^−7 M) and YS110 (0, 1, 3, or 10 μg/ml) were added thereto in combination. At day 2, MTT assay was conducted. Significant difference was tested by two-tailed t-test (vs Cont). Next, interaction in concomitant use of medications was studied (n=6). The interaction between YS110 and gemcitabine used concomitantly was analyzed by two-way ANOVA.
# MESO1, JMN, H2452 or H226 cells (2×10^3 cells/well were inoculated to a 96-well plate. One hour later, 3×10^−8 M or 10^−7 M gemcitabine was added thereto by concomitant use with the combination of cisplatin (0, 0.1, 0.3, or 1 μM) and pemetrexed (0, 0.03, 0.1, or 0.3 μM) (n=6). At day 2, MTT assay was conducted.
# The growth inhibitory effect of gemcitabine (10^−9 to 10^−4 M) was compared using MESO1, H2452, JMN, and H226 cell lines.
# H2452 cells = experiment: In vivo H2452 cell growth in SCID mice (tumor weight); conditions: YS110 10 mg/kg, cisplatin 0.5 mg/kg, pemetrexed 50 mg/kg, intraperitoneal, days 1 and 4; tumor weight day 7
# Description: H2452 cells (3×10^5 cells/animal) were subcutaneously transplanted to the backs of female SCID mice. The day of transplantation was defined as day 0. YS110 (10 mg/kg) alone, cisplatin (0.5 mg/kg)-pemetrexed (50 mg/kg) used concomitantly, or YS110 (10 mg/kg) used concomitantly with the cisplatin-pemetrexed concomitant use was intraperitoneally administered to the mice twice (days 1 and 4). At day 7, their tumors were excised, and the tumor weights were measured. Significant difference was tested by two-tailed t-test (vs Cont).
# H226 = experiment: In vivo growth of epithelioid mesothelioma cell H226 in SCID mice (tumor weight); conditions: YS110 10 mg/kg, gemcitabine 20 mg/kg, intraperitoneal, days 2 and 4; day 7
# Description: H226 (3.8×10^5 cells/animal) was subcutaneously transplanted to the backs of female SCID mice. The day of transplantation was defined as day 0. YS110 (10 mg/kg), gemcitabine (20 mg/kg), or YS110 (10 mg/kg)+gemcitabine (20 mg/kg) was intraperitoneally administered to the mice twice (days 2 and 4) (n=6). At day 7, their tumors were excised, and the tumor weights were measured. Significant difference was tested by two-tailed t-test (vs Cont). The interaction between YS110 and gemcitabine used concomitantly was analyzed by two-way ANOVA.
substance,measurement,setting,value
YS110: humanized anti-CD26 antibody designed based on anti-CD26 mouse antibody 14D10; SEQ ID NO: 17 and 18,effect of YS110 on the in vivo tumor growth inhibitory effect of cisplatin-pemetrexed,MESO1 cells,potentiated
same,effect of YS110 on the effect of gefitinib (tumor weight),"HCC827 cells; YS110 10 mg/kg intraperitoneal, gefitinib 100 mg/kg oral",potentiated
same,effect of YS110 on the effect of cisplatin-pemetrexed (tumor weight),"HCC827 cells; YS110 10 mg/kg, cisplatin 0.5 mg/kg, pemetrexed 50 mg/kg, intraperitoneal",potentiated
same,effect of YS110 on the growth inhibitory effect of gemcitabine,H226 cells,potentiated
same,effect of YS110 on the in vivo tumor growth inhibitory effect of cisplatin-pemetrexed,H2452 cells,potentiated
same,inhibitory effect (tumor weight),H226,34%
